Three compounds from the NIST ThermoML archive (doi:10.1016/j.fluid.2014.01.041) can be followed below.

SMILES strings stand for the structures. ± gives the expanded uncertainty stated by the source.

The conditions of this data set: Crystal; DTA.
As to `NC(=O)CN1CCCC1=O` [2-oxo-1-pyrrolidineacetamide], the Normal melting temperature amounted to 125 ± 0.4 °C.

As for `CC(=O)CCCCn1c(=O)c2c(ncn2C)n(C)c1=O` [3,7-dimethyl-1-(5-oxohexyl)-3,7-dihydro-1H-purine-2,6-dione], the Normal melting temperature was 106 ± 0.4 °C.

With `C(=C\c1ccccc1)/CN1CCN(C(c2ccccc2)c2ccccc2)CC1` [cinnarizine], the Normal melting temperature stood at 122.0 ± 0.4 °C.
